Laboratory results from patent US20250114345A1, “COMPOUNDS AND COMPOSITIONS AS CBP/P300 DEGRADERS AND USES THEREOF” (Oncopia Therapeutics, Inc. d/b/a/ SK Life Science Labs, priority 2023, published 2025).

Target: T1, p300 (Homo sapiens, UniProt Q09472)
T1 construct: host or cells: A549 P300 HiBit cells
Test: P300 degradation, HiBit technology in A549 P300 HiBit cells (2 h)
Format: cell-based
Conditions: 2 hrs post treatment; for Dmax: A549, A549 P300 HiBit cells; for DC50: A549 P300 HiBit cells
In short: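 A549 HiBiT knock-in cells seeded overnight at 37 °C, 5% CO2 in F-12K with 10% heat-inactivated FBS, then given serial dilutions of compound from 10 mM DMSO stocks. Lytic HiBiT detection reagent added for 10 min at room temperature; luminescence read. Potency and Dmax reported.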

T1 sequence (Q09472 whole entry): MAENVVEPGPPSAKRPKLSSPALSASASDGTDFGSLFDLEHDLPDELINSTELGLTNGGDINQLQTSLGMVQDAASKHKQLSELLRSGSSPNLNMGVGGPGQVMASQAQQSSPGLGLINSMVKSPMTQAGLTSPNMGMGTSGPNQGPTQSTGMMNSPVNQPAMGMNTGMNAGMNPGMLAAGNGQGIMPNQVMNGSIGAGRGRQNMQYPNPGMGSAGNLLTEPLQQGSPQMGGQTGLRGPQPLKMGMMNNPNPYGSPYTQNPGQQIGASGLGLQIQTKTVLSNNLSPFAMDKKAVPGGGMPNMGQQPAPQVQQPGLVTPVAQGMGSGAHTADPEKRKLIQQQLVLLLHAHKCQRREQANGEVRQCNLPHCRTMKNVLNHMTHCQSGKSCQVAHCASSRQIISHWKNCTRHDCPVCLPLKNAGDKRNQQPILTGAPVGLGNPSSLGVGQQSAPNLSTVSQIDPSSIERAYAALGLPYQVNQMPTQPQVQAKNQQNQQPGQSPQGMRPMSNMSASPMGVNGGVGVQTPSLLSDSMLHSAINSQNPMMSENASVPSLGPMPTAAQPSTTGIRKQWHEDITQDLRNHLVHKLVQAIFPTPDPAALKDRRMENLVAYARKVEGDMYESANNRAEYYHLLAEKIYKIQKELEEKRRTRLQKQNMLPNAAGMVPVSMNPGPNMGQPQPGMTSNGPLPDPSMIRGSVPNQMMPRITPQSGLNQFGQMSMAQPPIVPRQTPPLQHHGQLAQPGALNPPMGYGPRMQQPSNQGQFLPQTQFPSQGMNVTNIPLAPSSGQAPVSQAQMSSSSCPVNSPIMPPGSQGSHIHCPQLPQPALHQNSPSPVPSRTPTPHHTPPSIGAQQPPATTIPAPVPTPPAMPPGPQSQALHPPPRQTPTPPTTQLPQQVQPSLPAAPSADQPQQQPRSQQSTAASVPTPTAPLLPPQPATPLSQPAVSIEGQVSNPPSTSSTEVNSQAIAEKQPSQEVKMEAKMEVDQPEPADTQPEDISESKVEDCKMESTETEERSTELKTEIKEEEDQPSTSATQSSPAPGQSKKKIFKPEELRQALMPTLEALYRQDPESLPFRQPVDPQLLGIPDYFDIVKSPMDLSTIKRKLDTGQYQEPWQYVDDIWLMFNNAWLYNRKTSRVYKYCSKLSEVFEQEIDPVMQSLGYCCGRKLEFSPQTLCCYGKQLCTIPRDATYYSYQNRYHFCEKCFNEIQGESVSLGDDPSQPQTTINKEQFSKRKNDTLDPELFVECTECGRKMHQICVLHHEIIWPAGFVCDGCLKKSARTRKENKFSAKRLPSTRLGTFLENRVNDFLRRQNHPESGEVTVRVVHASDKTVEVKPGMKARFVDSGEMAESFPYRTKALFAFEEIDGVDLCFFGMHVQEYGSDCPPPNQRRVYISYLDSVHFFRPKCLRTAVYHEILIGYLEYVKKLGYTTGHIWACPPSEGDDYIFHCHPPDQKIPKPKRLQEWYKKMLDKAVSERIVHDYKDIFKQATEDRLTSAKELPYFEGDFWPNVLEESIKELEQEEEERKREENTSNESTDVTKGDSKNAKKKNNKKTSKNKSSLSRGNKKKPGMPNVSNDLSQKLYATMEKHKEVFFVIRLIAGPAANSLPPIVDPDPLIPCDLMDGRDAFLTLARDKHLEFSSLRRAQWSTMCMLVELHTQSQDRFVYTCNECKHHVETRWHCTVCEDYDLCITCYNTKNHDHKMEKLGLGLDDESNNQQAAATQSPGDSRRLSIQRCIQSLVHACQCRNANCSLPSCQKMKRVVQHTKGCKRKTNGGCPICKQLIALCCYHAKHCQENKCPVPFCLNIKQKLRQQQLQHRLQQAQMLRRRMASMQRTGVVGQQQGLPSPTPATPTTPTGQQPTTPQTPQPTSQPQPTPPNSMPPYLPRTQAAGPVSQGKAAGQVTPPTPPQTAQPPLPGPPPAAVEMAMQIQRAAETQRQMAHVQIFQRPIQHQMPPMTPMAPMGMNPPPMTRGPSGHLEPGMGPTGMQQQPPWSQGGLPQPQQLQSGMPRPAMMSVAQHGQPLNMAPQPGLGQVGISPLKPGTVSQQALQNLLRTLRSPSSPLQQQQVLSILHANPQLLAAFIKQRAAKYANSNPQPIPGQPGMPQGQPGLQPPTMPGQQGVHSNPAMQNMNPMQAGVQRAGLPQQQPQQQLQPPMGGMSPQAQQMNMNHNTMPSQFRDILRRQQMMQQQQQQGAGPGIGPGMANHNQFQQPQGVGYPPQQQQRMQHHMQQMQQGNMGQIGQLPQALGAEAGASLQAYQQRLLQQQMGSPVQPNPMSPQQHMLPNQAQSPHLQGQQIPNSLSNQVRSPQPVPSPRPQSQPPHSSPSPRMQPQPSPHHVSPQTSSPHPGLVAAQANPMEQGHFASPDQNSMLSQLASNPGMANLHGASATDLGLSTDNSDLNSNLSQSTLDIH

Row | SMILES | Dmax [%] | DC50 [nM]
1 | Cc1cc(-c2ncc3c(n2)OCCN3c2cnc3c(c2)n(C)c(=O)n3C)cnc1C(=O)NCC#Cc1ccc2occ(C3CCC(=O)NC3=O)c2c1 (centres unmarked) [Example A126, 5-(5-(1,3-dimethyl-2-oxo-2,3-dihydro-1H-imidazo[4,5-b]pyridin-6-yl)-6,7-dihydro-5H-pyrimido[4,5-b] [1,4]oxazin-2-yl)-N-(3-(3-(2,6-dioxo-piperidin-3-yl)benzofuran-5-yl)prop-2-yn-1-yl)-3-methylpicolinamide] | 20 to 39 | 1 to 9.9
2 | Cc1cc(-c2cnc(N(C)c3cc(C4CCOCC4)c4c(c3)n(C)c(=O)n4C)cn2)cnc1C(=O)NCC#Cc1ccc2occ(C3CCC(=O)NC3=O)c2c1 (centres unmarked) [Example A128, 5-(5-((1,3-dimethyl-2-oxo-7-(tetrahydro-2H-pyran-4-yl)-2,3-dihydro-1H-benzo[d]imidazol-5-yl)(methyl)amino)pyrazin-2-yl)-N-(3-(3-(2,6-dioxopiperidin-3-yl)benzofuran-5-yl)prop-2-yn-1-yl)-3-methylpicolinamide] | > 80 | 1 to 9.9
3 | Cn1cc(-c2ccc3c(c2)n(C)c(=O)n3C)c2cnc(-c3ccc(C(=O)NCC#Cc4ccc5occ(C6CCC(=O)NC6=O)c5c4)nc3)cc2c1=O (centres unmarked) [Example A129, 5-(8-(1,3-dimethyl-2-oxo-2,3-dihydro-1H-benzo[d]imidazol-5-yl)-6-methyl-5-oxo-5,6-dihydro-2,6-naphthyridin-3-yl)-N-(3-(3-(2,6-dioxo-piperidin-3-yl)benzo-furan-5-yl)prop-2-yn-1-yl)picolinamide] | > 80 | 1 to 9.9
4 | CN1C(=O)C(C)(C)c2cc(-c3cccc4cc(-c5ccc(C(=O)NCC#Cc6ccc7occ(C8CCC(=O)NC8=O)c7c6)nc5)ncc34)ccc21 (centres unmarked) [Example A130, N-(3-(3-(2,6-dioxo-piperidin-3-yl)benzo-furan-5-yl)prop-2-yn-1-yl)-5-(8-(1,3,3-trimethyl-2-oxoindolin-5-yl)isoquinolin-3-yl)picolinamide] | 20 to 39 | 10 to 99
5 | CC(C)c1cc(N2CCOc3cc(-c4ccc(C(=O)NCC#Cc5ccc6occ(C7CCC(=O)NC7=O)c6c5)nc4)c(C#N)cc32)cc2c1n(C)c(=O)n2C (centres unmarked) [Example A134, 5-(6-cyano-4-(7-iso-propyl-1,3-dimethyl-2-oxo-2,3-dihydro-1H-benzo[d]imidazol-5-yl)-3,4-dihydro-2H-benzo[b][1,4]oxazin-7-yl)-N-(3-(3-(2,6-dioxopiperidin-3-yl)benzofuran-5-yl)prop-2-yn-1-yl)picolinamide] | > 80 | 1 to 9.9
6 | Cn1c(=O)n(C)c2c(C3CCOCC3)nc(-c3cccc4cc(-c5ccc(C(=O)NCC#Cc6ccc7occ(C8CCC(=O)NC8=O)c7c6)nc5)ncc34)cc21 (centres unmarked) [Example A135, 5-(8-(1,3-dimethyl-2-oxo-4-(tetrahydro-2H-pyran-4-yl)-2,3-dihydro-1H-imidazo[4,5-c]pyridin-6-yl)isoquinolin-3-yl)-N-(3-(3-(2,6-dioxopiperidin-3-yl)benzofuran-5-yl)prop-2-yn-1-yl)picolinamide] | > 80 | 1 to 9.9
7 | CCN(c1cnc(-c2cnc(C(=O)NCC#Cc3ccc4occ(C5CCC(=O)NC5=O)c4c3)c(C)c2)c(F)c1)c1cc(C(C)C)c2c(c1)n(C)c(=O)n2C (centres unmarked) [Example A137, N-(3-(3-(2,6-dioxo-piperidin-3-yl)benzofuran-5-yl)prop-2-yn-1-yl)-5-(ethyl(7-isopropyl-1,3-dimethyl-2-oxo-2,3-dihydro-1H-benzo[d]imidazol-5-yl)amino)-3-fluoro-5′-methyl-[2,3′-bipyridine]-6′-carboxamide] | > 80 | 1 to 9.9
8 | Cn1c(=O)n(C)c2c(C3CCS(=O)(=O)CC3)nc(N3CCCc4cc(-c5ccc(C(=O)NCC#Cc6ccc7occ(C8CCC(=O)NC8=O)c7c6)nc5)c(C(F)F)cc43)cc21 (centres unmarked) [Example A140, 5-(7-(difluoromethyl)-1-(4-(1,1-dioxido-tetrahydro-2H-thio-pyran-4-yl)-1,3-dimethyl-2-oxo-2,3-dihydro-1H-imidazo[4,5-c]pyridin-6-yl)-1,2,3,4-tetrahydroquinolin-6-yl)-N-(3-(3-(2,6-dioxopiperidin-3-yl)benzofuran-5-yl)prop-2-yn-1-yl)picolinamide] | 40 to 59 | 1 to 9.9
9 | Cc1cc(-c2ccc(N(C)c3cc(C(C)C)c4c(c3)n(C)c(=O)n4C)cn2)cnc1C(=O)NCC#Cc1ccc2occ(C3CCC(=O)NC3=O)c2c1 (centres unmarked) [Example A141, N-(3-(3-(2,6-dioxo-piperidin-3-yl)benzofuran-5-yl)prop-2-yn-1-yl)-5-((7-isopropyl-1,3-dimethyl-2-oxo-2,3-dihydro-1H-benzo [d]imidazol-5-yl)(methyl)amino)-5′-methyl-[2,3′-bipyridine]-6′-carboxamide] | > 80 | 1 to 9.9
10 | CC(C)c1cc(N2CCC(F)(F)c3cc(-c4ccc(C(=O)NCC#Cc5ccc6occ(C7CCC(=O)NC7=O)c6c5)nc4)ccc32)cc2c1n(C)c(=O)n2C (centres unmarked) [Example A142, 5-(4,4-difluoro-1-(7-isopropyl-1,3-dimethyl-2-oxo-2,3-dihydro-1H-benzo[d]imidazol-5-yl)-1,2,3,4-tetrahydroquinolin-6-yl)-N-(3-(3-(2,6-dioxopiperidin-3-yl)benzofuran-5-yl)prop-2-yn-1-yl)picolinamide] | > 80 | 10 to 99
11 | CCn1c(=O)n(C)c2ccc(N3CCOc4nc(-c5ccc(C(=O)NCC#Cc6ccc7occ(C8CCC(=O)NC8=O)c7c6)nc5)ncc43)cc21 (centres unmarked) [Example A143, N-(3-(3-(2,6-dioxo-piperidin-3-yl)benzofuran-5-yl)prop-2-yn-1-yl)-5-(5-(3-ethyl-1-methyl-2-oxo-2,3-dihydro-1H-benzo[d]imidazol-5-yl)-6,7-dihydro-5H-pyrimido[4,5-b] [1,4]oxazin-2-yl)picolinamide] | 20 to 39 | 1 to 9.9
12 | Cn1c(=O)oc2cc(N3CCOc4nc(-c5ccc(C(=O)NCC#Cc6ccc7occ(C8CCC(=O)NC8=O)c7c6)nc5)ncc43)ccc21 (centres unmarked) [Example A144, N-(3-(3-(2,6-dioxo-piperidin-3-yl)benzofuran-5-yl)prop-2-yn-1-yl)-5-(5-(3-methyl-2-oxo-2,3-dihydrobenzo[d]oxazol-6-yl)-6,7-dihydro-5H-pyrimido [4,5-b][1,4]oxazin-2-yl)picolinamide] | < 20 | > 1000
13 | Cc1cc(N2CCCc3nc(-c4ccc(C(=O)NCC#Cc5ccc6occ(C7CCC(=O)NC7=O)c6c5)nc4)ncc32)cc2c1n(C)c(=O)n2C (centres unmarked) [Example A146, N-(3-(3-(2,6-dioxo-piperidin-3-yl)benzofuran-5-yl)prop-2-yn-1-yl)-5-(5-(1,3,7-trimethyl-2-oxo-2,3-dihydro-1H-benzo[d]imidazol-5-yl)-5,6,7,8-tetrahydropyrido [3,2-d]pyrimidin-2-yl)picolinamide] | > 80 | 1 to 9.9
14 | Cc1cc(-c2ncc(N(C)c3cc4c(c(N5CCOCC5)n3)n(C)c(=O)n4C)cn2)cnc1C(=O)NCC#Cc1ccc2occ(C3CCC(=O)NC3=O)c2c1 (centres unmarked) [Example A147, 5-(5-((1,3-dimethyl-4-morpholino-2-oxo-2,3-dihydro-1H-imidazo[4,5-c]pyridin-6-yl)(methyl)amino)pyrimidin-2-yl)-N-(3-(3-(2,6-dioxopiperidin-3-yl)benzofuran-5-yl)prop-2-yn-1-yl)-3-methylpicolinamide] | < 20 | > 1000
15 | COc1cc(-c2cc3cccc(-c4ccc5c(c4)n(C)c(=O)n5C)c3cn2)cnc1C(=O)NCC#Cc1ccc2occ(C3CCC(=O)NC3=O)c2c1 (centres unmarked) [Example A148, 5-(8-(1,3-dimethyl-2-oxo-2,3-dihydro-1H-benzo[d]imidazol-5-yl)isoquinolin-3-yl)-N-(3-(3-(2,6-dioxo-piperidin-3-yl)benzofuran-5-yl)prop-2-yn-1-yl)-3-methoxypicolinamide] | > 80 | 1 to 9.9
16 | Cc1cc(-c2ncc(N(C)c3cc(C4CCOCC4)c4c(c3)n(C)c(=O)n4C)s2)cnc1C(=O)NCC#Cc1ccc2occ(C3CCC(=O)NC3=O)c2c1 (centres unmarked) [Example A149, 5-(5-((1,3-dimethyl-2-oxo-7-(tetrahydro-2H-pyran-4-yl)-2,3-dihydro-1H-benzo[d]imidazol-5-yl)(methyl)amino)thiazol-2-yl)-N-(3-(3-(2,6-dioxopiperidin-3-yl)benzofuran-5-yl)prop-2-yn-1-yl)-3-methylpicolinamide] | < 20 | > 1000
17 | CC(C)c1cc(N2CCCc3cc(-c4ccc(C(=O)NCC#Cc5ccc6occ(C7CCC(=O)NC7=O)c6c5)nc4)c(C(F)F)cc32)cc2c1n(C)c(=O)n2C (centres unmarked) [Example A151, 5-(7-(difluoromethyl)-1-(7-isopropyl-1,3-dimethyl-2-oxo-2,3-dihydro-1H-benzo[d]imidazol-5-yl)-1,2,3,4-tetrahydroquinolin-6-yl)-N-(3-(3-(2,6-dioxopiperidin-3-yl)benzofuran-5-yl)prop-2-yn-1-yl)picolinamide] | > 80 | 1 to 9.9
18 | Cn1c(=O)n(C)c2c(-n3cccn3)nc(-c3cccc4cc(-c5ccc(C(=O)NCC#Cc6ccc7occ(C8CCC(=O)NC8=O)c7c6)nc5)ncc34)cc21 (centres unmarked) [Example A152, 5-(8-(1,3-dimethyl-2-oxo-4-(1H-pyrazol-1-yl)-2,3-dihydro-1H-imidazo[4,5-c]pyridin-6-yl)iso-quinolin-3-yl)-N-(3-(3-(2,6-dioxopiperidin-3-yl)benzofuran-5-yl)prop-2-yn-1-yl)picolinamide] | 20 to 39 | 10 to 99
19 | Cc1cc(-c2ncc(N(C)c3cc(C(C)C)c4c(c3)n(C)c(=O)n4C)cc2F)cnc1C(=O)NCC#Cc1ccc2occ(C3CCC(=O)NC3=O)c2c1 (centres unmarked) [Example A153, N-(3-(3-(2,6-dioxo-piperidin-3-yl)benzofuran-5-yl)prop-2-yn-1-yl)-3-fluoro-5-((7-iso-propyl-1,3-dimethyl-2-oxo-2,3-dihydro-1H-benzo[d]imidazol-5-yl)(methyl)amino)-5′-methyl-[2,3′-bipyridine]-6′-carboxamide] | > 80 | 1 to 9.9
